Like-named read-outs stand apart in the source and are kept apart here.
Columns and labels:
[1] = tested on: T cells from Patient #6211; assay: γIFN response of serially expanded T cells from Patient #6211 restimulated with GAD65 peptides and autologous APC; type: cell-based, human; details: T cells from Patient #6211 expanded in serial culture, autologous APC
Procedure: 10^5 thawed and irradiated DRB1*0404, DRB1*0405, or control (non-DR4) peripheral blood lymphocytes (PBL) in a volume of 100 μl were added to wells of 96 V-bottom plates containing peptide or medium and allowed to incubate for 2-3 hours at which time 4×10^4 T cells were added for a total volume of 200 μl-250 μl. At 20-24 hours of coculture, supernatants were harvested for cytokine determination and the wells replenished with fresh medium. At 48 hours, wells were radiolabeled with 1 μCi H^3-thymidine and cultured for an additional 18 hr. The plates were harvested on a TomTec Manual Mach III harvester and incorporated thymidine (as cpm) was determined by liquid spectroscopy on a Wallac Microbeta LSC.
Traditional sandwich ELISA were performed to test the supernatants for human γIFN, using matched antibody sets obtained from Endogen. The plates were read at 405 nm on a Microplate reader (Bio-Tek). The concentration of cytokine was estimated from standard curves using linear regression.
T cells from Patient #6211 were expanded in serial culture by restimulation with GAD65 peptides incubated with autologous APC. Specific T cell responses were present for both peptides 553-572 (53 pg/ml γIFN) and 555-567 (51 pg/ml γIFN), but not peptide 569-585 (5 pg/ml γIFN), localizing the minimal epitope to the 555-567 region. T cell clones were derived by expansion of this culture; proliferation, and cytokine response profiles for CD4^+ T cell clones BRI.4-10 and BRI.4-11 are shown in FIGS. 1A and 1B.

DR4 = details: Wicker et al, 1996; cited from earlier work
T cell clone BRI.4-11 = assay: prepulse antagonism assay, response to GAD65 555-567, clone BRI.4-11; type: cell-based, human
DR4 molecules = DR4 molecules (Homo sapiens, UniProt P01903+P01911, A100K/A169T/F76Y/I96L/K127E/L162R/M171V/N62H/P40V/Q125Y/R42H/S133A/S149N/S66Y/V115G/V209L/W38E); assay: standard DR4-peptide fluorescent binding assay
T cell clone BRI.4-10 = assay: prepulse antagonism assay, response to GAD65 555-567, clone BRI.4-10; type: cell-based, human

553-572: GAD65 peptide of residues 553-572 (KVNFFRMVISNPAATHQDID; UniProt Q05329 553-572, looked up, fragment)
γIFN, specific T cell response [1]: 53 pg/mL

554-566: GAD65 554-566 sequence, DR4-binding peptide of Wicker et al (VNFFRMVISNPAA; UniProt Q05329 554-566, looked up, fragment)
DR4 binding avidity among GAD65 peptides (DR4): most avid binding peptide identified

569-585: GAD65 peptide of residues 569-585 (QDIDFLIEEIERLGQDL; UniProt Q05329 569-585, looked up, fragment)
γIFN, specific T cell response [1]: 5 pg/mL

CC[C@H](C)[C@H](NC(=O)[C@@H](NC(=O)[C@H](CCSC)NC(=O)[C@H](CCCNC(=N)N)NC(=O)[C@H](Cc1ccccc1)NC(=O)[C@H](Cc1ccccc1)NC(=O)[C@@H](N)CC(N)=O)C(C)C)C(=O)N[C@@H](CO)C(=O)N[C@@H](CC(N)=O)C(=O)N1CCC[C@H]1C(=O)N[C@@H](C)C(=O)N[C@@H](C)C(=O)N[C@H](C(=O)O)[C@@H](C)O [555-567]
γIFN, specific T cell response [1]: 51 pg/mL

CSCC[C@H](NC(=O)[C@H](CCCNC(=N)N)NC(=O)[C@H](Cc1ccccc1)NC(=O)[C@H](Cc1ccccc1)NC(=O)[C@@H](N)CC(N)=O)C(=O)N[C@H](C(=O)N[C@@H](CC(C)C)C(=O)N[C@@H](CO)C(=O)N[C@@H](CC(N)=O)C(=O)N1CCC[C@H]1C(=O)N[C@@H](C)C(=O)N[C@@H](C)C(=O)N[C@H](C(=O)O)[C@@H](C)O)C(C)C [561 L]
antagonism of proliferative response (in words) (T cell clone BRI.4-11; clone BRI.4-11, highest concentration tested, APC pre-pulsed with agonist peptide): partially antagonized

CSCC[C@H](NC(=O)[C@H](CCCNC(=N)N)NC(=O)[C@H](Cc1ccccc1)NC(=O)[C@H](Cc1ccccc1)NC(=O)[C@@H](N)CC(N)=O)C(=O)N[C@H](C(=O)N[C@@H](CCSC)C(=O)N[C@@H](CO)C(=O)N[C@@H](CC(N)=O)C(=O)N1CCC[C@H]1C(=O)N[C@@H](C)C(=O)N[C@@H](C)C(=O)N[C@H](C(=O)O)[C@@H](C)O)C(C)C [561 M]
IC50 (DR4 molecules): 400 nM | reduction of T cell proliferative response (T cell clone BRI.4-10; clone BRI.4-10, APC pre-pulsed with agonist peptide 555-567): 80% | antagonism of γIFN cytokine response (in words) (T cell clone BRI.4-10; clone BRI.4-10, APC pre-pulsed with agonist peptide 555-567, FIG. 2B): similarly antagonized | antagonism of T cell responses (proliferation and γIFN, FIGS. 2C and 2D) (T cell clone BRI.4-11; clone BRI.4-11, APC pre-pulsed with agonist peptide 555-567): more than 90%

VNFFRMVISNPAATHQD [GAD 554-570]
IC50 (DR4 molecules; read-out: peptide binding: concentration of peptide giving 50% inhibition of a standard DR4-peptide fluorescent binding assay): 600 nM

From patent US20030176351A1, “Peptides and peptide analogues designed from a diabetes-associated autoantigen, and methods for their use in the treatment and prevention of diabetes” (priority 1999, published 2003)
